Assay results from patent US11236354B2, “Glyphosate-n-acetyltransferase (GLYAT) sequences and methods of use” (PIONEER HI-BRED INTERNATIONAL, INC., priority 2013, dated 2022).
Values joined by “and” are separate entries in the source; they are usually repeats but may differ in a detail not shown here. Equal values may be shown once.

How the values were obtained:
Assay in all cases: Substrate saturation kinetic analysis of purified GLYAT
[1] = target: GLYAT variant SEQ ID NO:3 (derived from SEQ ID NO:1 and 2) (Bacillus licheniformis, UniProt Q65LG7, A28V/D131E/E119K/E14D/E65Q/E67K/E68K/E83D/G37R/I132T/I135V/I15L/I19V/I2L/I53V/I91V/K101R/K144R/K58Q/L105M/L106I/L26I/L97I/M75V/R47G/R92K/T89S/V114A/Y130F/Y45F); conditions: pH 7.0
[2] = target: GLYAT (glyphosate-N-acetyltransferase), parent, SEQ ID NO:1 (Bacillus licheniformis, UniProt Q65LG7, E119R/E14D/E65Q/E67K/E68K/G37R/G38S/I132T/I135V/I15L/I19V/I53V/I91V/K101R/K144R/K58Q/L105M/L106I/L145I/L26I/L36T/L97I/M75V/R47G/R92K/T33S/T89S/V114A/Y130F/Y31F/Y45F)
[3] = target: GLYAT (glyphosate-N-acetyltransferase), parent, SEQ ID NO:2 (Bacillus licheniformis, UniProt Q65LG7, A28V/D131E/E119K/E63D/E65Q/E67Q/E68K/E83D/E96Q/G37R/I132T/I135V/I15L/I2L/K101R/K144R/K58Q/L105M/L97I/R18K/T89S/V114A/Y130F/Y45F); conditions: pH 7.0
[4] = target: T1, native GLYAT (glyphosate-N-acetyltransferase), SEQ ID NO:173 (Bacillus licheniformis, UniProt Q65LG7); assay type: biochemical; conditions: Table 5; native GLYAT SEQ ID NO:173; ratio of kcat/Km asp to kcat/Km glyph
T1 sequence (Q65LG7 1-146): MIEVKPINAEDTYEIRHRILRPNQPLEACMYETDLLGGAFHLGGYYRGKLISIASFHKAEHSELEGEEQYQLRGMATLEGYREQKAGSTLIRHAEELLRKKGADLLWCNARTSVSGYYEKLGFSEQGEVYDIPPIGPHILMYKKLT
Description: (§1) E. coli cultures in LB or 2×YT were grown overnight at 37° C. to saturation. The cells were used as a 2% inoculum into fresh media. When OD reached 0.6, IPTG was added to 0.2 mM and growth was continued for at least 6 hours. Cells were harvested by centrifugation and stored at −80° C. Cells were lysed with BPER (Pierce) containing 1 mM dithiothreitol, 0.2 mg/ml lysozyme, 2 mg/ml protease inhibitor cocktail (Sigma bacterial cell cocktail, P8465) and endonuclease. Lysate supernatants were passed through a column of NHS-activated Agarose (Thermo, #26197) derivatized with coenzyme A. Columns were washed with 25 mM Hepes, pH 7, containing progressively higher concentrations of KCl, then eluted with 25 mM Hepes, 100 mM KCl, 10% ethylene glycol and 1 mM acetyl CoA. Purity as evaluated by polyacrylamide gel electrophoresis was deemed consistently high enough to be assumed to be 100%. Protein concentration was determined with the Bradford assay using a large-scale lot of produced GLYAT protein as standard.
(§2) Kinetic parameters for various substrates were obtained using a range of seven substrate concentrations plus a blank containing none of the varied substrate. The non-varied substrate was present at a saturating concentration. Six-microliter aliquots of 50-fold concentrated stock solutions of the varied substrate were placed in a 96-well assay plate (Greiner BioOne UV-Star). Reactions were started with the addition of 294 ul of 25 mM Hepes, pH 7.0, 100 mM KCL, 10% ethylene glycol, the non-varied substrate and 10 to 200 nM enzyme. Absorbance was monitored for one minute with a Spectramax 384 Plus plate reader (Molecular Devices). If the amino acid present at position 30 (29 if alanine is absent at position 2) was cysteine, absorbance was monitored at 235 nm, which directly detects cleavage of the sulfoester bond of acetyl CoA. If the amino acid present at position 30 (29 if alanine is absent at position 2) was isoleucine, 0.5 mM 5,5′-dithiobis-(2-nitrobenzoic acid), which reacts with the coenzyme A thiol generated in the enzyme catalyzed reaction, was included in the reaction mix and absorbance was monitored at 412 nm. Initial rates were processed by the Softmax software to obtain kinetic parameters, using the double-reciprocal transformation.

[5] = target: GLYAT variant SEQ ID NO:7 (derived from SEQ ID NO:1 and 2) (Bacillus licheniformis, UniProt Q65LG7, A28V/D131E/E119K/E14D/E65Q/E67K/E68K/E79G/E83D/G37R/G38S/G48A/I132L/I135A/I15L/I19V/I2L/I53V/I91V/K101R/K144R/K58Q/L105M/L106I/L26I/L36T/L97I/M75V/N109F/R47G/R92K/T33S/T89S/V114A/Y130F/Y31W/Y45F); assay type: biochemical
Description: as §1, §2

[6] = target: GLYAT high specificity variant SEQ ID NO:29 (derived from SEQ ID NO:1 and 2; C29I, F31Y; motif VIMYETDLL, SEQ ID NO:174) (Bacillus licheniformis, UniProt Q65LG7); assay type: biochemical
Description: as §1, with “Lysate supernatants were passed through a column of NHS-activated Agarose (Thermo, #26197) derivatized with coenzyme A. Columns were washed with 25 mM Hepes, pH 7, containing progressively higher concentrations of KCl, then eluted with 25 mM Hepes, 100 mM KCl, 10% ethylene glycol and 1 mM acetyl CoA.” left out
Kinetic parameters for various substrates were obtained using a range of seven substrate concentrations plus a blank containing none of the varied substrate. […] Absorbance was monitored for one minute with a Spectramax 384 Plus plate reader (Molecular Devices). If the amino acid present at position 30 (29 if alanine is absent at position 2) was cysteine, absorbance was monitored at 235 nm, which directly detects cleavage of the sulfoester bond of acetyl CoA. […]

[7] = target: GLYAT variant SEQ ID NO:9 (derived from SEQ ID NO:1 and 2) (Bacillus licheniformis, UniProt Q65LG7, A28V/D131E/E119K/E14D/E65Q/E67K/E68K/G37R/G38S/I132T/I135A/I15L/I19V/I53V/I91V/K101R/K144R/K58Q/L105M/L26I/L97I/M75V/R47G/R92K/T89S/V114A/Y130F/Y45F); conditions: pH 7.0
[8] = pH 7.0, non-varied substrate saturating

## N[C@@H](CC(=O)O)C(=O)O [aspartate]
[1]
  Asp as % of glyph (kcat/KM asp / kcat/KM glyph): 0.403%
[2]; 25 mM Hepes, pH 7.0
  kcat/KM with aspartate: 228 M⁻¹ s⁻¹
[2]; Table 5 and text, specificity (kcat/KM asp/kcat/KM glyph), listed as asp
  kcat/Km asp, % glyph: 1.3% and 1.27%
[2]; pH 7.0
  Asp as % of glyph (kcat/KM asp / kcat/KM glyph): 1.273%
[3]
  Asp as % of glyph (kcat/KM asp / kcat/KM glyph): 0.574%
[4]
  kcat/Km asp, % glyph: 55.6%
[5]; pH 7.0
  Asp as % of glyph (kcat/KM asp / kcat/KM glyph): 0.154%
[5]; [8]
  kcat (aspartate): 1.52 s⁻¹
  kcat/KM (aspartate): 13.7 M⁻¹ s⁻¹
[6]; 25 mM Hepes, pH 7.0
  activity with aspartate (kcat/Km): 8 M⁻¹ s⁻¹
[6]; Table 5, ratio of kcat/Km asp to kcat/Km glyph
  kcat/Km asp, % glyph: 0.013%
[7]
  Asp as % of glyph (kcat/KM asp / kcat/KM glyph): 0.073%
